Results published in patent US20190117657A1, “METHOD OF INHIBITING HIGH FAT DIET-RELATED CONDITIONS” (South Australian Health and Medical Research Institute …, priority 2016, published 2019).
Entries after “also recorded” stand apart in the source; their conditions may differ. Structures can show the parent of a compound that is named as a salt.

Experiments:
[1] = system: MNKs; assay: eIF4E phosphorylation (P-eIF4E immunoblot) in 3T3-L1 cells as read-out of MNK activity; format: cell-based; conditions: immunoblot
Text: Similar data obtained in three replicate experiments.
The term “MNK inhibitor” as used herein is intended to refer to any compound that reduces the biological activity of MNK1 (including reducing the biological activity of one or both of splice variants MNK1 a and MNK1b) and/or MNK2 (including reducing the biological activity of one or both of splice variants MNK2a and MNK2b), including by reducing the amount of MNK1 and/or MNK2 expressed. For example, the MNK inhibitor may be a small organic molecule (also referred to as a “small molecule” herein), a peptide antagonist, an inhibitory antibody or fragment thereof, an interfering nucleotide molecule, an aptamer or other MNK inhibitor that inhibits the expression or biological activity as would be understood by those skilled in the art. The biological activity of MNK1 and MNK2 can be measured in a variety of ways, for example, by measuring phosphorylation of its substrate eIF4E to P-eIF4E using any suitable method known to those skilled in the art, for example, by performing an immunoblot or ELISA utilising a specific anti-P-eIF4E antibody, for example, the anti-phospho eIF4E (Ser209) antibody distributed by Merck Millipore, Catalogue No. 07-823 (Merck Millipore, Billerica, Mass., United States of America). […] Those skilled in the art will be aware of how to conduct suitable controls when measuring P-eIF4E levels. The MNK1 and/or MNK2 bioactivity can otherwise be measured using a cellular assay that can detect levels of MNK1 and/or MNK2 bioactivity. Antibodies that specifically detect phosphorylated MNK could also be used, for example, anti-P-MNK1 (Phospho-Mnk1 (Thr197/202) Antibody #2111; Cell Signaling Technology Inc, Danvers, Mass., United States of America). Additionally, those skilled in the art will appreciate that the MNK inhibitors should be safe for use for its intended purpose.
Tissues were harvested in RIPA lysis buffer containing 50 mM TrisHCl, pH 7.4, 150 mM NaCl, 1% Triton X-100, 0.1% sodium deoxycholate, 0.1% sodium dodecyl sulfate, 1 mM ethylenediaminetetraaacteic acid (EDTA), 50 mM β-glycerolphosphate, 0.5 mM NaVO3, 0.1% 2-mercaptoethanol and protease inhibitors (Roche). After lysis, insoluble material was removed by centrifugation at 12,000 g for 10 min at 4° C. Protein content was determined by the Bradford protein assay (Bio-Rad). Immunoblotting was performed as described in Liu et al. (2014). Blots were visualised using a LI-COR Odyssey® Quantitative Imaging System. Primary antibodies as indicated in Table 5 were from Cell Signaling Technologies, except for anti-P-eIF4E (Merck Millipore). Secondary antibodies were obtained from Thermo Fisher Scientific Inc. (Waltham, Mass., United States of America) and used at 1:20,000 dilution.
MNKs are the only kinases known to phosphorylate eIF4E, and accordingly, the phosphorylation of eIF4E (P-eIF4E) provides a direct read-out of MNK biological activity.
Since eIF4E is only phosphorylated by the MNKs, its phosphorylation status is a reliable read-out of intracellular MNK activity. […] MNK2 is the main MNK in 3T3-L1 cells and in adipose tissue (Moore et al., 2016). In additional studies, tests were conducted to assess the effect of the MNK-I2 inhibitor on the induction of differentiation markers in 3T3-L1 cells.

[2] = system: 3T3-L1 cells; assay: Lipid accumulation in differentiating 3T3-L1 cells (Oil Red O / triglyceride); format: cell-based; conditions: 20 μM, 3T3-L1 cells differentiated 9 days
Protocol: (§1) For induction of 3T3-L1 (fibroblast) cell differentiation, pre-adipocytes were grown to 2 days post-confluence in DMEM supplemented with 10% FBS (day 0) and the medium was changed to DMEM supplemented with 10% FBS, insulin (167 nM), dexamethasone (0.5 μM), isobutylmethylxanthine (IBMX) (0.5 mM) and rosiglitazone (2 μM). After 48 h, the medium was replaced with medium containing DMEM supplemented with 10% (v/v) FBS and 167 nM insulin. On day 4, after inducing differentiation, and thereafter, the cells were cultured in DMEM with 10% FBS. The maintenance medium was changed every 48 h until the cells were utilised for experimentation (9 days from the initiation of differentiation).
Assessment of intracellular triglyceride levels was performed using Oil Red O staining as described by others (Smith et al., 1988). Briefly, on day 9 of differentiation of the 3T3-L1 cells were fixed in 10% formalin for 1 hour. […] For quantification, cells were washed extensively with water to remove unbound dye, and 1 ml isopropanol was added to the stained 6-well culture plate. After 5 min, the absorbance of the oil red extract at 510 nm was measured, with an increased absorbance indicative of an increased lipid level within the cells.
The amount of tissue-released triglyceride (TAG) was measured using a Triglyceride Quantification Kit (Abcam, ab65336).

[3] = system: 3T3-L1 cells; assay: Induction of adipogenic gene mRNAs in differentiating 3T3-L1 cells (RT-qPCR); format: cell-based; conditions: 20 μM, day 3 and 6 of differentiation
Protocol: Total RNA was isolated from tissues (frozen at the time of sampling) using Trizol reagent (Sigma-Aldrich) according to the manufacturer's instructions. RNA concentrations were determined by absorbance at 260 nm, while quality and integrity were evaluated via 260/230 and 260/280 ratios using a NanoDrop spectrophotometer (Thermo Fisher Scientific). RT-real time PCR amplification was carried out using the ImProm-II Reverse Transcription System (A3800; Promega, Madison, Wis., United States of America) with random primers following the manufacturer's protocol. Subsequently, real-time quantitative (q) PCR was performed using primer sequences described in Supplemental Table S1 of Moore CEJ et al., 2016, the content of which is hereby incorporated by reference in its entirety). The comparative CT method was used to measure the amplification of target mRNA levels compared with […] (B2M) mRNA. In FIG. 1A, the relative amount of each transcript was determined using the equation 2^−dCt, where dCt=(Ct target gene-Ct ref gene), and Ct=cycle threshold.
as §1
In order to study the role of MNK2 in adipocyte differentiation, 3T3-L1 cells were used in a similar manner to that described in Example 1. […]

[4] = system: 3T3L1 cells; assay: Lipolysis assay (glycerol release) in differentiated 3T3-L1 cells; format: cell-based; conditions: cells differentiated in presence vs absence of compound
Protocol: 3T3L1 cells were differentiated as described above for 9 days. The lipolysis assay was performed according to the manufactures instructions (Abcam Lipolysis assay kit, ab185433, Abcam). Briefly, after differentiation cells were washed two times with lipolysis assay buffer. Lipolysis was stimulated using 100 nM isoproterenol for 3 h. The amount of glycerol released was measured using colorimetric intensity.

[5] = system: other protein kinases; conditions: cited from earlier work
[6] = biological target: MNK2 (Homo sapiens, UniProt Q9HBH9); conditions: cited from earlier work
[7] = biological target: MNK1 (Homo sapiens, UniProt Q9BUB5); conditions: cited from earlier work
Chain of MNK1 (Q9BUB5 whole entry, species assumed): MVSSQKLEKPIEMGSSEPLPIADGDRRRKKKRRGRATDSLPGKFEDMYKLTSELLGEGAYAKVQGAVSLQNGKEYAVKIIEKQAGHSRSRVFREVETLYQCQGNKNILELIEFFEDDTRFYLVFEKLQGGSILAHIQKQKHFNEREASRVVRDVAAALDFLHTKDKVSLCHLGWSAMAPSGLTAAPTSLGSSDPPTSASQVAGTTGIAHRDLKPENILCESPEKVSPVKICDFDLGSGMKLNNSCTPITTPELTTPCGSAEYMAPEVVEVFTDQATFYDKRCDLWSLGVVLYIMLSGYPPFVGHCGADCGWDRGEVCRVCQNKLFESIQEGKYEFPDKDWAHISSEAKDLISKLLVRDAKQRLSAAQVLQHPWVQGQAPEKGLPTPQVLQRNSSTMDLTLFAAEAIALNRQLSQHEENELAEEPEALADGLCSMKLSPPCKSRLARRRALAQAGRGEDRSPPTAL

Chain of MNK2 (Q9HBH9 whole entry, species assumed): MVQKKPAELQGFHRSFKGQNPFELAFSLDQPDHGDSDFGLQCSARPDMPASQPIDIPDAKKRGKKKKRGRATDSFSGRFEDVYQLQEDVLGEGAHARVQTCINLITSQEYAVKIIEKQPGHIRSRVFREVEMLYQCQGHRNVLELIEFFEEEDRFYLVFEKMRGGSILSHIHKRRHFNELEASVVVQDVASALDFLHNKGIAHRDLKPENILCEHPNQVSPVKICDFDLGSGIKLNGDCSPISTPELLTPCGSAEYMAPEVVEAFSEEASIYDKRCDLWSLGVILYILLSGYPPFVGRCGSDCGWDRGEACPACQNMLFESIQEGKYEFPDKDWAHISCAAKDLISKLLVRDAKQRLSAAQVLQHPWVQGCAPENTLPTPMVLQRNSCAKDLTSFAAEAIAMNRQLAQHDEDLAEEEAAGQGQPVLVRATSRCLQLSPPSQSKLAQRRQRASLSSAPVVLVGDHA

| Compound | inhibition of P-eIF4E / MNK activity [1] | accumulation of lipid (Oil Red O) [2] | induction of adipogenic genes (PPARγ, C/EBPα, SREBP1c, GLUT4, CD36 mRNA) [3] | glycerol released in lipolysis assay [4] | inhibition of other protein kinases [5] | IC50 [6] | IC50 [7] |
| --- | --- | --- | --- | --- | --- | --- | --- |
| Nc1ncnc2[nH]nc(Nc3ccc(F)cc3)c12 [CGP57380, N3-(4-Fluorophenyl)-1H-pyrazolo-[3,4-d]pyrimidine-3,4-diamine] | almost completely blocking MNK activity | inhibited the accumulation of lipid; also recorded: markedly inhibited | substantially blocked the induction of all of these genes; also recorded: impairs the induction of key transcription factors; also recorded: inhibits the expression of the glucose and lipid transporters GLUT4 and CD36; also recorded: inhibited expression of a number of genes required for adipocyte differentiation | less glycerol was released | inhibit other protein kinases in addition to the MNKs |  |  |
| c1cc(-c2cc(C3CCNCC3)[nH]n2)ccn1 [ETP 45835 dihydrochloride, 4-[5-(4-Piperidinyl)-1H-pyrazol-3-yl]pyridine dihydrochloride] |  |  |  |  |  | 646 nM | 575 nM |
